Data on 1 compound can be found in publication PMC7676912, “Guanosine Tetraphosphate Has a Similar Affinity for Each of Its Two Binding Sites on Escherichia coli RNA Polymerase” (Frontiers in Microbiology, 2020).

Common to all, as to test: DRaCALA, one-site saturation fit
Type in all cases: binding

In assay [1] the target is T1, wild-type RNAP-GreB complex (Escherichia coli, UniProt P0A800+P0A8T7).
T1 construct: gene rpoZ; recombinant core RNAP saturated with omega plus purified GreB; ppGpp at Site 1; with DNA-directed RNA polymerase subunit alpha; DNA-directed RNA polymerase subunit beta; Transcription elongation factor GreB
Conditions: read-out: Kd,app.

The target in assay [2] is T2, RNAPΔω (no DksA; lacking Sites 1 and 2) (Escherichia coli, UniProt P0A8T7).
T2 construct: gene rpoC; RNAP lacking omega, purified from a ΔrpoZ strain, no DksA added; with DNA-directed RNA polymerase subunit alpha; DNA-directed RNA polymerase subunit beta
Particulars: read-out: Kd,app.

In assay [3] the target is T3, wild-type RNAP-TraR complex (Escherichia coli, UniProt P0A800+P0A8T7).
T3 construct: gene rpoZ; recombinant core RNAP saturated with omega plus purified TraR (encoded by F element); ppGpp at Site 1; with DNA-directed RNA polymerase subunit alpha; DNA-directed RNA polymerase subunit beta; Protein TraR
Particulars: Site 1; TraR present; labelled compound [32P]-ppGpp; unreliable (printed 'at least'; curve did not plateau); non-equilibrium assay.

Assay [4] addresses T4, RNAPΔω with DksA (Site 2 only) (Escherichia coli, UniProt P0A8T7+P0ABS1).
T4 construct: gene rpoC; with DNA-directed RNA polymerase subunit alpha; DNA-directed RNA polymerase subunit beta
Conditions: read-out: Kd,app.

Assay [5] deals with T5, wild-type RNAP (without DksA; Site 1 only) (Escherichia coli, UniProt P0A800+P0A8T7, P0A800:DEL2-5).
T5 construct: gene rpoZ; recombinant core RNAP, alpha, beta, beta' from one plasmid and omega from a second plasmid, omega saturating; with DNA-directed RNA polymerase subunit alpha; DNA-directed RNA polymerase subunit beta

For assay [6], the target named is T6, wild-type RNAP with DksA (Sites 1 and 2) (Escherichia coli, UniProt P0A800+P0A8T7+P0ABS1, P0ABS1:K98A).
T6 construct: gene rpoZ; recombinant core RNAP saturated with omega plus saturating purified DksA; with DNA-directed RNA polymerase subunit alpha; DNA-directed RNA polymerase subunit beta

In assay [7] the target is T7, wild-type RNAP (without DksA; Site 1 only) (Escherichia coli, UniProt P0A800+P0A8T7).
T7 construct: gene rpoZ; recombinant core RNAP, alpha, beta, beta' from one plasmid and omega from a second plasmid, omega saturating; with DNA-directed RNA polymerase subunit alpha; DNA-directed RNA polymerase subunit beta
Conditions: read-out: Kd,app.

Assay [8] addresses T8, wild-type RNAP with DksA (Sites 1 and 2) (Escherichia coli, UniProt P0A800+P0A8T7+P0ABS1).
T8 construct: gene rpoZ; recombinant core RNAP saturated with omega plus saturating purified DksA; with DNA-directed RNA polymerase subunit alpha; DNA-directed RNA polymerase subunit beta
Particulars: read-out: Kd,app.

In assay [9] the target is T9, wild-type RNAP with DksA (Sites 1 and 2) (Escherichia coli, UniProt P0A800+P0A8T7+P0ABS1, P0ABS1:R129A).
T9 construct: gene rpoZ; recombinant core RNAP saturated with omega plus saturating purified DksA; with DNA-directed RNA polymerase subunit alpha; DNA-directed RNA polymerase subunit beta

Take `Nc1nc2c(ncn2[C@@H]2O[C@H](COP(=O)(O)OP(=O)(O)O)[C@@H](OP(=O)(O)OP(=O)(O)O)[C@H]2O)c(=O)[nH]1` [ppGpp, guanosine 5'-diphosphate 3'-diphosphate]: the Kd was approximately 6.4 µM in assay [1]; more than 100 µM in assay [2]; 7.9 ± 1.3 µM in assay [4]; more than 100 µM in assay [5]; approximately 1300 nM in assay [6]; 6.1 ± 1.3 µM in [7]. In addition, the Kd was 3.3 ± 1.2 µM in [8] and approximately 1800 nM in [9]. In assay [3], the “Kd,app” value is more than 4.2 ± 0.6 µM.
